Source: patent US8114410B2, “Composition and methods for the inhibition of membrane fusion by paramyxoviruses” (priority 2001, dated 2012)

What was measured:
[1] = test system: HeV-mediated fusion (HeLa cells expressing HeV F and G, U373 target cells)
[2] = test system: NiV-mediated fusion (HeLa cells expressing NiV F and G, U373 target cells)
live NiV = conditions: 56 μM

Molecule: CC[C@H](C)[C@H](NC(=O)[C@H](CCCCN)NC(=O)[C@H](CCC(N)=O)NC(=O)[C@H](C)NC(=O)[C@H](CCC(=O)O)NC(=O)[C@H](CCCCN)NC(=O)[C@@H](NC(=O)[C@H](Cc1ccc(O)cc1)NC(=O)[C@H](CC(=O)O)NC(=O)[C@H](CCCCN)NC(=O)[C@H](CO)NC(=O)[C@H](CCC(N)=O)NC(=O)[C@H](CCC(N)=O)NC(=O)[C@H](CC(C)C)NC(=O)[C@H](CO)NC(=O)[C@H](CCC(N)=O)NC(=O)[C@H](CC(N)=O)NC(=O)[C@H](CCSC)NC(=O)[C@H](CO)NC(=O)[C@H](CO)NC(=O)[C@@H](NC(=O)[C@H](CCC(N)=O)NC(=O)[C@H](CO)NC(=O)[C@H](CO)NC(=O)[C@@H](NC(=O)[C@H](CC(=O)O)NC(=O)[C@@H](NC(=O)[C@H](CCCCN)NC(=O)[C@H](CC(=O)O)NC(=O)[C@@H](NC(=O)[C@H](Cc1ccc(O)cc1)NC(=O)[C@@H](NC(=O)[C@@H]1CCCN1C(=O)[C@@H]1CCCN1)C(C)C)[C@@H](C)O)C(C)C)[C@@H](C)CC)[C@@H](C)CC)[C@@H](C)CC)C(=O)N[C@@H](CC(C)C)C(=O)N[C@@H](CC(=O)O)C(=O)N[C@H](C(=O)N[C@H](C(=O)N[C@@H](CC(N)=O)C(=O)N1CCC[C@H]1C(=O)N[C@@H](CO)C(=O)N[C@@H](CC(C)C)C(=O)O)C(C)C)[C@@H](C)O [HeV FC2]
- IC50 [1]: 5.2 to 5.8 nM
- Inhibition of HeV-mediated fusion (in words) [1]: completely inhibitory in the nM range
- IC50 [2]: 5.2 to 5.8 nM
- Inhibition of NiV-mediated fusion (in words) [2]: completely inhibitory in the nM range

Molecule: CC[C@H](C)[C@H](NC(=O)[C@H](CCCCN)NC(=O)[C@H](CCC(N)=O)NC(=O)[C@H](C)NC(=O)[C@H](CCC(=O)O)NC(=O)[C@H](CCCCN)NC(=O)[C@@H](NC(=O)[C@H](Cc1ccc(O)cc1)NC(=O)[C@H](CC(=O)O)NC(=O)[C@H](CCCCN)NC(=O)[C@H](CO)NC(=O)[C@H](CCC(N)=O)NC(=O)[C@H](CCC(N)=O)NC(=O)[C@H](CC(C)C)NC(=O)[C@H](CO)NC(=O)[C@H](CCC(N)=O)NC(=O)[C@H](CC(N)=O)NC(=O)[C@H](CCSC)NC(=O)[C@H](CO)NC(=O)[C@H](CO)NC(=O)[C@@H](NC(=O)[C@H](CCC(N)=O)NC(=O)[C@H](CO)NC(=O)[C@H](CO)NC(=O)[C@@H](NC(=O)[C@H](CC(=O)O)NC(=O)[C@@H](NC(=O)[C@H](CCCCN)NC(=O)[C@H](CC(=O)O)NC(=O)[C@@H](NC(=O)[C@H](Cc1ccc(O)cc1)NC(=O)[C@@H](NC(=O)[C@@H]1CCCN1C(=O)[C@@H]1CCCN1)C(C)C)[C@@H](C)O)C(C)C)[C@@H](C)CC)[C@@H](C)CC)[C@@H](C)CC)C(=O)N[C@@H](CC(C)C)C(=O)N[C@@H](CC(=O)O)C(=O)N[C@H](C(=O)N[C@H](C(=O)N[C@@H](CC(N)=O)C(=O)N1CCC[C@H]1C(=O)N[C@@H](CO)C(=O)N[C@@H](CC(C)C)C(=O)O)C(C)C)[C@@H](C)O [FC1]
- Inhibition of HeV-mediated fusion (in words) [1]: completely inhibit HeV-mediated fusion in the nM range
- Inhibition of NiV-mediated fusion (in words) [2]: capable of inhibiting recombinant NiV-mediated fusion at slightly lower efficiencies
- % Inhibition of focus formation (live NiV): 91.8%

Molecule: KPYTQSDVSMISLQSQKSINSLPSQIKDYVQKTVILAEDNP [ScHeV FC2, reference compound]
- Inhibition of HeV-mediated fusion (in words) [1]: no inhibitory effect
- Inhibition of NiV-mediated fusion (in words) [2]: no inhibitory effect
